From US4025622A, “Novel sugar ureide and thioureide derivatives” (Ogura; Haruo, priority 1974, dated 1977)
Converted amounts (≈) assume the structure as drawn.

Experiments:
[1] = tested on: mice; experiment: LDo value for mice by oral administration; assay type: in vivo
[2] = tested on: Klebsiella pneumoniae; experiment: Minimum inhibitory concentration, standard serial dilution method; assay type: cell-based; details: 37° C.; for MIC: Klebsiella pneumoniae, 24 h, inoculum size 1.3×10^5, Brain heart infusion broth
Procedure: (§1) The minimum inhibitory concentration (mcg/ml) of a variety of the sugar ureide and thioureide derivatives according to this invention against various bacteria was determined in accordance with a standard serial dilution method using as medium Brain heart infusion broth (Difco) at 37° C. the determination being made after 24 hours incubation. The results are shown in Table 1 together with the results of test for ampicillin as reference.

[3] = tested on: Staphylococcus aureus 209 P; experiment: as above; assay type: cell-based; details: inoculum size 3.8×10^5, Brain heart infusion broth, 37° C., 24 hours; for MIC: Staphylococcus aureus, 209P
Procedure: as §1

[4] = tested on: Escherichia coli IAM-1264; experiment: as above; assay type: cell-based; details: 37° C.; for MIC: Escherichia coli, IAM1264, 24 h, inoculum size 1.9×10^5, Brain heart infusion broth
Procedure: as §1

[5] = tested on: Salmonella typhi O-901-W; experiment: as above; assay type: cell-based; details: 37° C.; for MIC Salmonella typhi O-901-W: inoculum size 3.5×10^5, Brain heart infusion broth, 24 hours; for MIC: Salmonella enterica, TYPHI, 24 h, inoculum size 3.5×10^5, Brain heart infusion broth
Procedure: as §1

[6] = tested on: Proteus vulgaris OX 19; experiment: as above; assay type: cell-based; details: 37° C.; for MIC Proteus vulgaris OX 19: inoculum size 1.2×10^5, Brain heart infusion broth, 24 hours; for MIC: Proteus vulgaris, OX19, 24 h, inoculum size 1.2×10^5, Brain heart infusion broth
Procedure: as §1

[7] = tested on: Staphylococcus aureus No. 26; experiment: as above; assay type: cell-based; details: 37° C.; for MIC: Staphylococcus aureus, NO.26, 24 h, inoculum size 2.3×10^5, Brain heart infusion broth
Procedure: as §1

[8] = tested on: Pseudomonas aeruginosa IAM-1007; experiment: as above; assay type: cell-based; details: 37° C.; for MIC: Pseudomonas aeruginosa, IAM1007, 24 h, inoculum size 1.3×10^5, Brain heart infusion broth
Procedure: as §1

[9] = inoculum size 1.3×10^5, Brain heart infusion broth, 24 hours

| Compound | LDo [1] [mg/kg] | MIC [2] [µg/mL] | MIC [3] [µg/mL] | MIC [4] [µg/mL] | MIC Salmonella typhi O-901-W [5] [µg/mL] | MIC Proteus vulgaris OX 19 [6] [µg/mL] | MIC [7] [µg/mL] | MIC [8] [µg/mL] | MIC [5] [µg/mL] | MIC [6] [µg/mL] | MIC Klebsiella pneumoniae [2, 9] [µg/mL] | MIC Staphylococcus aureus 209 P [3] [µg/mL] | MIC Escherichia coli IAM-1264 ([4]; inoculum size 1.9×10^5, Brain heart infusion broth, 24 hours) [µg/mL] | MIC Staphylococcus aureus No. 26 ([7]; inoculum size 2.3×10^5, Brain heart infusion broth, 24 hours) [µg/mL] | MIC Pseudomonas aeruginosa IAM-1007 [8, 9] [µg/mL] |
| --- | --- | --- | --- | --- | --- | --- | --- | --- | --- | --- | --- | --- | --- | --- | --- |
| CC(=O)O[C@H]1[C@H](OC(C)=O)[C@@H](NC(=S)N[C@@H](C(=O)N[C@@H]2C(=O)N3[C@@H]2SC(C)(C)[C@@H]3C(=O)O)c2ccccc2)OC[C@H]1OC(C)=O [Example 10, Triethylammonium α-(2,3,4,-tri-O-acetyl-α-D-arabinopyranosylthioureido) benzylpenicillinate] | > 1000 | 50 | 3.12 | 50 | 6.25 | > 100 | 100 | 200 |  |  |  |  |  |  |  |
| CC(=O)OC[C@@H](OC(C)=O)[C@@H](OC(C)=O)[C@H](OC(C)=O)[C@@H](OC(C)=O)C(=O)NC(=S)N[C@@H](C(=O)N[C@@H]1C(=O)N2C(C(=O)O)=C(C)CS[C@H]12)c1ccccc1 [Example 28, 7-[D-α-(2,3,4,5,6-penta-O-acetyl-D-gluconylthioureido)-phenylacetamido] -3-methyl-3-cephem-4-carboxylic acid] | > 1000 | > 100 | 12.5 (≈ 15.7 µM) | > 100 |  |  |  | > 100 | > 100 | 100 (≈ 126 µM) |  |  |  |  |  |
| CC(=O)OC[C@@H](OC(C)=O)[C@@H](OC(C)=O)[C@H](OC(C)=O)[C@@H](OC(C)=O)C(=O)NC(=S)N[C@@H](C(=O)N[C@@H]1C(=O)N2[C@@H]1SC(C)(C)[C@@H]2C(=O)O)c1ccccc1 [Example 17, α-(2,3,4,5,6-Penta-O-acetyl-D-gluconyl-thioureido) benzylpenicillin] | > 1000 | > 100 | 0.78 (≈ 0.979 µM) | > 100 |  |  | > 100 | > 100 | 50 (≈ 62.7 µM) | 1.56 (≈ 1.96 µM) |  |  |  |  |  |
| CC1(C)S[C@@H]2[C@H](NC(=O)[C@H](N)c3ccccc3)C(=O)N2[C@H]1C(=O)O [Ampicillin, α-aminobenzylpenicillin, reference compound] | > 1000 | 1.56 (≈ 4.46 µM) | 0.1 (≈ 0.286 µM) | 3.12 (≈ 8.93 µM) |  |  | > 100 | > 100 | 0.39 (≈ 1.12 µM) | 100 (≈ 286 µM) |  |  |  |  |  |
| CC(=O)O[C@H]1[C@H](OC(C)=O)[C@@H](NC(=S)N[C@@H](C(=O)N[C@@H]2C(=O)N3[C@@H]2SC(C)(C)[C@@H]3C(=O)O)c2ccccc2)OC[C@H]1OC(C)=O [Example 13, α-(2,3,4-Tri-O-acetyl-α-D-arabinopyranosylthioureido) benzylpenicillin] |  |  |  |  | > 100 | 25 (≈ 37.5 µM) |  |  |  |  | > 100 | 3.12 (≈ 4.68 µM) | > 100 | > 100 | > 100 |
